{"source": "patent US6288060A", "about": "“Amino substituted pyrimidines and triazines” (Neurocrine Biosciences, Inc., priority 1998, dated 2001)", "note": "pKi: −log10 of the molar value."}
{"biological_target": "T1, human CRF receptors (Homo sapiens, UniProt P34998)", "T1 construct": "expressed in transfected cells", "T1 sequence (P34998 24-415)": "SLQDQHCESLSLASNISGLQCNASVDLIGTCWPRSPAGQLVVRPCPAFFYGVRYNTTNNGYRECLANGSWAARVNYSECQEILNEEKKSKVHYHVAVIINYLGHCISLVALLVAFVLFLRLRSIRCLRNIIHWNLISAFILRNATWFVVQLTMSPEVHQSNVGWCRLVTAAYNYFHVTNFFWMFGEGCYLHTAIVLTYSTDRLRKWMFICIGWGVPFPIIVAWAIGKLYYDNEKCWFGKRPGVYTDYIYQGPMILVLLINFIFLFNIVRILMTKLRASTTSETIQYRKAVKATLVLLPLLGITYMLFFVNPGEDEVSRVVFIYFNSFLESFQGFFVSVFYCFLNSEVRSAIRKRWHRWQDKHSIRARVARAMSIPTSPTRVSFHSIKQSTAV", "experiment": "radioligand binding assay, displacement of [125I]tyrosine-ovine CRF from CRF receptor (stably transfected cells)", "details": "[125I]tyrosine-ovine CRF ~200 pM; cells stably transfected with human CRF receptors; 2 hours at 22° C.", "description": "(§1) The effectiveness of a compound as a CRF receptor antagonist may be determined by various assay methods. […] CRF receptor affinity may be determined by binding studies that measure the ability of a compound to inhibit the binding of a radiolabeled CRF (e.g. [^125 I]tyrosine CFR) to receptor (e.g., receptors prepared from rat cerebral cortex membranes). The radioligand binding assay described by DeSouza et al. (supra, 1987) provides an assay for determining a compound's affinity for the CRF receptor.\n(§2) where L=radioligand and KD =affinity of radioligand for receptor (Cheng and Prusoff, Biochem. Pharmacol. 22:3099, 1973).\n(§3) By utilizing various radiolabeled CRF ligands, the assay may be used to evaluate the binding activity of the compounds of the present invention with any CRF receptor subtype. Briefly, the binding assay involves the displacement of a radiolabeled CRF ligand from the CRF receptor.\n(§4) More specifically, the binding assay was performed in 1.5 ml Eppendorf tubes using approximately 1×10^6 cells per tube stably transfected with human CRF receptors. Each tube received about 0.1 ml of assay buffer (e.g., Dulbecco's phosphate buffered saline, 10 mM magnesium chloride, 20 μM bacitracin) with or without unlabeled sauvagine, urotensin I or CRF (final concentration, […]) to determine nonspecific binding, 0.1 ml of [^125 I] tyrosine--ovine CRF (final concentration ~200 pM or approximately the KD as determined by Scatchard analysis) and 0.1 ml of a membrane suspension of cells containing the CRF receptor. The mixture was incubated for 2 hours at 22° C. followed by the separation of the bound and free radioligand by centrifugation. Following two washes of the pellets, the tubes were cut just above the pellet and monitored in a gamma counter for radioactivity at approximately 80% efficiency. All radioligand binding data was analyzed using a non-linear least-square curve-fitting program. Binding activity corresponds to the concentration (nM) of the compound necessary to displace 50% of the radiolabeled ligand from the receptor."}
{"smiles": "CCCN(CC1CC1)c1nc(C)nc(C(=O)c2c(OC)cc(OC)cc2OC)c1C", "note": "[Compound 2]", "pKi": "≥ 6.60"}
{"smiles": "CCCN(CCC)c1nc(C)nc(C(=O)c2c(C)cc(C)cc2C)c1C", "note": "[Compound 13]", "pKi": "≥ 6.60"}
{"smiles": "CCCN(CC1CC1)c1nc(C)nc(C(=O)c2c(C)cc(C)cc2C)c1C", "note": "[Compound 5]", "pKi": "≥ 6.60"}
{"smiles": "C=CCN(CC=C)c1nc(C)nc(C(=O)c2c(C)cc(C)cc2C)c1C", "note": "[Compound 14]", "pKi": "≥ 6.60"}
{"smiles": "CCCN(CC1CC1)c1nc(C)nc(C(=O)c2c(CC)cc(CC)cc2CC)c1C", "note": "[Compound 8]", "pKi": "≥ 6.60"}
{"smiles": "CCCN(CC1CC1)c1nc(C)nc(Cc2c(OC)cc(OC)cc2OC)c1C", "note": "[Compound 20, 2,6-dimethyl-4-(N-propyl-N-cyclopropylmethylamino)-6-(2',4',6'-trimethyloxyphenylmeth-1'-yl)-pyrimidine]", "pKi": "≥ 6.60"}
{"biological_target": "T1, human CRF receptors", "experiment": "radioligand binding assay, displacement of [125I]tyrosine-ovine CRF from CRF receptor (stably transfected cells)", "details": "result in words, same radioligand binding assay", "description": "as §1, §2, §3, §4"}
{"smiles": "CCCN(CC1CC1)c1nc(C)nc(C(=O)c2c(CC)cc(CC)cc2CC)c1C", "note": "[Compound 8]", "score in CRF receptor binding test (ranking among compounds)": "best score"}
